We go through five molecules from ChEMBL document CHEMBL5465560, “Selectivity Literature for EUbOPEN Chemogenomic Library” (2024).

In assay [1] the target is T1, Dual specificity mitogen-activated protein kinase kinase 7 (Homo sapiens) (UniProt O14733).
T1 sequence (whole entry): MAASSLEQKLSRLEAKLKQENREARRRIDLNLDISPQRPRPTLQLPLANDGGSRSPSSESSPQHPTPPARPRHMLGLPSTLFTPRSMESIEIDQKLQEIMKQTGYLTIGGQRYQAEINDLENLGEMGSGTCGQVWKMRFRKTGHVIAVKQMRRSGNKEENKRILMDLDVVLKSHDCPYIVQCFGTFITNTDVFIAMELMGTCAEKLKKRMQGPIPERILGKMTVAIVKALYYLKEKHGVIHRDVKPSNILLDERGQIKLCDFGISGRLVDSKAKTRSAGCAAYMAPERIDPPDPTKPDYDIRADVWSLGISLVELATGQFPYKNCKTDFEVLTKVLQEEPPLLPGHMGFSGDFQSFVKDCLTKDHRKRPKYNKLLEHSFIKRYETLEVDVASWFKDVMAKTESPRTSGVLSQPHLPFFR
Briefly: Selectivity interaction (KinomeScan (DiscoverX)) EUB0000595a MAP2K7. The following applies: at 10 µM.

Assay [2] addresses Serine/threonine-protein kinase WNK3 (Homo sapiens) (UniProt Q9BYP7). Put plainly: Selectivity interaction (KinomeScan (DiscoverX)) EUB0000695a WNK3. To be noted: at 100 nM.
Assay [3] concerns the target T2, Casein kinase I isoform alpha-like (Homo sapiens) (UniProt Q8N752).
T2 sequence (whole entry): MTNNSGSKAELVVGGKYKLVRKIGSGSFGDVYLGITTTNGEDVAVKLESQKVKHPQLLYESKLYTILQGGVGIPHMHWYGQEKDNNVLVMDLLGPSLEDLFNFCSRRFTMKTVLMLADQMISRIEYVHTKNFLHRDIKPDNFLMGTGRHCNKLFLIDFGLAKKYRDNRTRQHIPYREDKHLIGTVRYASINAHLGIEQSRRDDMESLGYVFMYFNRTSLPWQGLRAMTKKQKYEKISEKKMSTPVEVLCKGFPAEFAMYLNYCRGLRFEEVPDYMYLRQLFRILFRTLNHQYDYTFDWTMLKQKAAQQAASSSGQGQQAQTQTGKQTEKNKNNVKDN
Briefly: Selectivity interaction (KinomeScan (DiscoverX)) EUB0000607a CSNK1A1L. To be noted: at 10 µM.

Assay [4] has as its target Platelet-derived growth factor receptor alpha (Homo sapiens, UniProt P16234). Put plainly: Selectivity interaction (Kinase panel (Invitrogen)) EUB0000639a PDGFRA. The following applies: at 200 nM.
Assay [5] has as its target T3, TGF-beta receptor type-1 (Homo sapiens) (UniProt P36897).
T3 sequence (whole entry): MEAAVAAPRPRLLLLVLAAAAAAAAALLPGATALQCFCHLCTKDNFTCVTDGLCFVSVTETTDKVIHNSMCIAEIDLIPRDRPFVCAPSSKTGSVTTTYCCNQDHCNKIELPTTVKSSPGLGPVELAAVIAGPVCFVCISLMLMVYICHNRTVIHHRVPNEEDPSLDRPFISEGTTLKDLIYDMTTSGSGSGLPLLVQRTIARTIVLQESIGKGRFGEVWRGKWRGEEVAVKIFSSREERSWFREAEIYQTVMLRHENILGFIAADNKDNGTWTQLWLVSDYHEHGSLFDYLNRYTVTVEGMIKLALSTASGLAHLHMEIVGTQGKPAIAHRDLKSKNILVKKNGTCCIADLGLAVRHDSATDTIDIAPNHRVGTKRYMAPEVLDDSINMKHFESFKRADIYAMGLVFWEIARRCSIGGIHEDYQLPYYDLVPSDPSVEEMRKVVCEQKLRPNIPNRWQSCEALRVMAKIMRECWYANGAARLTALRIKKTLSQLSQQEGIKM
Put plainly: Selectivity interaction (Kinase panel (Invitrogen)) EUB0000639a TGFBR1. The following applies: at 200 nM.

Assay [6] has as its target T4, Mitogen-activated protein kinase kinase kinase 15 (Homo sapiens) (UniProt Q6ZN16).
T4 sequence (whole entry): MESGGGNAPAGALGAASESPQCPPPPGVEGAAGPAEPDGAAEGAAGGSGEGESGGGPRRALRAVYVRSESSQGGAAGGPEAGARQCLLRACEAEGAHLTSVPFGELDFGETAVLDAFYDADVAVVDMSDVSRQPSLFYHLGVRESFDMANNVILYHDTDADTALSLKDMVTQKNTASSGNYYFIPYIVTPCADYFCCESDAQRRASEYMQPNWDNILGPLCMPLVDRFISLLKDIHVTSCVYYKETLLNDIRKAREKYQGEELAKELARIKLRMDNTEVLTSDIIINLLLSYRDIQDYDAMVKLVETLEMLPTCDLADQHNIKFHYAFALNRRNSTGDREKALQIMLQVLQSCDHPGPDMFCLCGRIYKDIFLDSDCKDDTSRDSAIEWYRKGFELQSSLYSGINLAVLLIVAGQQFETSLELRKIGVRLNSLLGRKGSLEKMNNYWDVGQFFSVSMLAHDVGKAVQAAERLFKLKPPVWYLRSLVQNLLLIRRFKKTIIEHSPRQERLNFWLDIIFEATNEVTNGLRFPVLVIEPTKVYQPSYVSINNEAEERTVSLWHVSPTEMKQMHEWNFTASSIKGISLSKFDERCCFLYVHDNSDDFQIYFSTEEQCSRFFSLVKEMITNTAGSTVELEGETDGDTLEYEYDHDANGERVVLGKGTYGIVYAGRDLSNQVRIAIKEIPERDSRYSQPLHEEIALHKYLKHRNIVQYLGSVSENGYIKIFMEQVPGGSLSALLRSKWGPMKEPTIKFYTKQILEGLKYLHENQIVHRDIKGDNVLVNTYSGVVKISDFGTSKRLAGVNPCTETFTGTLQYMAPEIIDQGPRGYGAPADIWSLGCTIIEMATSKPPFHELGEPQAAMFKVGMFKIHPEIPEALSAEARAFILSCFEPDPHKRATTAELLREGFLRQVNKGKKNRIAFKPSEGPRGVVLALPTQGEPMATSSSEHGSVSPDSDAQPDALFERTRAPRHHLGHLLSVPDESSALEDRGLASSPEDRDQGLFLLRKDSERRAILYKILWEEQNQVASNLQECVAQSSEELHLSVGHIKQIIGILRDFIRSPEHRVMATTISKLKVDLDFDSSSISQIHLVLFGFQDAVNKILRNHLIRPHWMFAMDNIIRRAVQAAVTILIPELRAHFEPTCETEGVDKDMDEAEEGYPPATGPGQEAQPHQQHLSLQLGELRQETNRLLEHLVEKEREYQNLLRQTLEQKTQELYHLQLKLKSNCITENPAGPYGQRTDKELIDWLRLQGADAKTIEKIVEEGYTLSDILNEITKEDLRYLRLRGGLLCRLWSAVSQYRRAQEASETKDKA
Briefly: Selectivity interaction (Kinase panel (KiNativ target engagement assay in Jurkat cells)) EUB0001635a MAP3K15. It is filed as cell-based. To be noted: at 1 µM.

Sequence of Serine/threonine-protein kinase WNK3 (Homo sapiens) (Q9BYP7 whole entry, canonical isoform): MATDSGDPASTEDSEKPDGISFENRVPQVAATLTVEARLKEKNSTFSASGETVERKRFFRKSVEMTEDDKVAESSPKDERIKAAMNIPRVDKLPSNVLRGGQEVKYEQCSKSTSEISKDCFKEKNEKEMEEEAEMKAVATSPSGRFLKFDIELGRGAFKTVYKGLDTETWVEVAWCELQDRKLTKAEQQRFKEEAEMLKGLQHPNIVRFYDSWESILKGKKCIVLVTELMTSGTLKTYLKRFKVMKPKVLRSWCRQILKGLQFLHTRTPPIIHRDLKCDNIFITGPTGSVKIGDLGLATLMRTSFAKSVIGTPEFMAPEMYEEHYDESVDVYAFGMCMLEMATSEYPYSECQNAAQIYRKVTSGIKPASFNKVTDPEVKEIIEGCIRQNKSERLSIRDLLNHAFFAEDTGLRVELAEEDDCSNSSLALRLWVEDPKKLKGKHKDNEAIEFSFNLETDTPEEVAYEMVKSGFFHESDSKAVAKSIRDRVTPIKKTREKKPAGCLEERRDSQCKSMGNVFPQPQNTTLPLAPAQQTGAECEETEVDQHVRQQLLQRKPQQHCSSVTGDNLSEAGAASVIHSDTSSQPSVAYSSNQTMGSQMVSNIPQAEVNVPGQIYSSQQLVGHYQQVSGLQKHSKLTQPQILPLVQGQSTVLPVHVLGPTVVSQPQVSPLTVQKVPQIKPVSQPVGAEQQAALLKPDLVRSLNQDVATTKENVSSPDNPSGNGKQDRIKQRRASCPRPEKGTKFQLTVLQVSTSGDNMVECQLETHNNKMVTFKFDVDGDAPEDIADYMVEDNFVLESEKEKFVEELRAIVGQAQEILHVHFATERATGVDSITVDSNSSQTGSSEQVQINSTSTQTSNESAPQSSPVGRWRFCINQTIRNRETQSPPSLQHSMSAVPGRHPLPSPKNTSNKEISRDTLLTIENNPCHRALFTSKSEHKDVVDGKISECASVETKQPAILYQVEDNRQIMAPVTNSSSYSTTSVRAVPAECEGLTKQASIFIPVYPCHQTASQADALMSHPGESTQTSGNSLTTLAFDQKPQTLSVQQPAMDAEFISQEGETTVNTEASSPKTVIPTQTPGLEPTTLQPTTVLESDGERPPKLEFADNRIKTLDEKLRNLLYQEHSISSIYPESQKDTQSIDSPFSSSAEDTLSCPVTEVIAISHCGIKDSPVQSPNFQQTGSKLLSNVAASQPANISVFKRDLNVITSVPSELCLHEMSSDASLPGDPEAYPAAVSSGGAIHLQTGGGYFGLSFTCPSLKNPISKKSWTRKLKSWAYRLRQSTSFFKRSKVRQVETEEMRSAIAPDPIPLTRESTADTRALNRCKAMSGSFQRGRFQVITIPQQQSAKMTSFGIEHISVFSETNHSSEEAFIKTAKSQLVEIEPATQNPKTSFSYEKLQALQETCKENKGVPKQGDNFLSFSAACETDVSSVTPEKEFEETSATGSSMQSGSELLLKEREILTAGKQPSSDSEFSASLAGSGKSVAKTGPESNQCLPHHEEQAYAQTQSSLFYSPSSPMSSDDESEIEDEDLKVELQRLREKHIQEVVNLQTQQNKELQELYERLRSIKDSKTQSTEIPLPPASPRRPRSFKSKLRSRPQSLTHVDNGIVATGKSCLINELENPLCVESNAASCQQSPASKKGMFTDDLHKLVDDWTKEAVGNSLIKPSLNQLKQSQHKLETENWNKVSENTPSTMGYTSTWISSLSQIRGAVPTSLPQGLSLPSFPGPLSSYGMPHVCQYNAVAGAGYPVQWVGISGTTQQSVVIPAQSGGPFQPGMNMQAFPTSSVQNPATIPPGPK
Sequence of Platelet-derived growth factor receptor alpha (P16234 whole entry): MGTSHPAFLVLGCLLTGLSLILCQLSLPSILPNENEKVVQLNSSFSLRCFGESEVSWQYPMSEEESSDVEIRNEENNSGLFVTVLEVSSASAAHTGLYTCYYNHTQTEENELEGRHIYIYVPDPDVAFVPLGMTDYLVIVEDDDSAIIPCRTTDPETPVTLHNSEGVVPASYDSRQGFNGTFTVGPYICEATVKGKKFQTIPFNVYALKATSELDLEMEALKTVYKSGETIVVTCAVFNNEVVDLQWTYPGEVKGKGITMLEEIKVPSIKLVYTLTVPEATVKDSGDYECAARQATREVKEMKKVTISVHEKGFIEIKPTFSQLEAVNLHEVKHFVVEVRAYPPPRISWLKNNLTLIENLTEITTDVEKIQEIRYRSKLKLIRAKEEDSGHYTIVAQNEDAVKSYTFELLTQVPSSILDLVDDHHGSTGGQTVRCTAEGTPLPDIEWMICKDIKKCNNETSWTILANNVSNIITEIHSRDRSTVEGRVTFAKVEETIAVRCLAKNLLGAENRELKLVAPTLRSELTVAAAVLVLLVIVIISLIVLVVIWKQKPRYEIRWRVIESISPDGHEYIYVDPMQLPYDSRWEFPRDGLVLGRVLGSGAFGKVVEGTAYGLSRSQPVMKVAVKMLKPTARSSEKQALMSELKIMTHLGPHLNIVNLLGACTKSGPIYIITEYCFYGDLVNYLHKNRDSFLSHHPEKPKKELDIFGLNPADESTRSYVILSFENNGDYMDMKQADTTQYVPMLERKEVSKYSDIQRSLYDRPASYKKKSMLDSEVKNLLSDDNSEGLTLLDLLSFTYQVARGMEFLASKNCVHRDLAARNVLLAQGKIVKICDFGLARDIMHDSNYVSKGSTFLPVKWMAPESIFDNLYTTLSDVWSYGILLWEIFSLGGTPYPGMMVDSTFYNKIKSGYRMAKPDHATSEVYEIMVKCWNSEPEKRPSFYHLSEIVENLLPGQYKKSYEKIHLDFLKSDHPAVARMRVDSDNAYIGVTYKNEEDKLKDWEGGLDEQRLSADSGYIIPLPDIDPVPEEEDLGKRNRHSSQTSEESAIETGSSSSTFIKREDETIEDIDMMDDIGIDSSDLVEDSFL

`COCC(=O)NC/C=C/c1ccc2ncnc(Nc3ccc(Oc4ccc(C)nc4)c(C)c3)c2c1` [CP-724714] had a % of control in assay [1] of 100%.

`Cc1cc(F)c(C(=O)Nc2cccc(-c3nncn3C(C)C)n2)cc1-n1cnc(C2CC2)c1` yielded a % of control in assay [2] of 100%.

For `CNC(=O)Nc1ccc(-c2nc(N3CC4CCC(C3)O4)c3cnn(C4CCC5(CC4)OCCO5)c3n2)cc1`, in assay [3], the % of control came to 100%.

In the case of `CC[C@@H]1[C@H](F)C(=O)N[C@@H]1COc1nccc2cc(C(N)=O)c(OC)cc12` [ZIMLOVISERTIB], the % of inhibition in assay [4] is -0.518%; in assay [5], 27.1%.

`C=CC(=O)Nc1ccc(C(=O)Nc2[nH]nc3c2CN(C(=O)N[C@H](CN(C)C)c2ccccc2)C3(C)C)cc1` registered a % of engagement in assay [6] of 4.9%.
